According to ChEMBL document CHEMBL1201862, “PubChem BioAssay data set” (2004):
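Step 1: Grow cells in 96-well plates. Step 2: Expose to compound for 48 hours at 5 concentrations. Step 3: Interpolate endpoints linearly; if unreached, use highest concentration. At the GI50, growth is halved.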 Active and inactive are the calls of the source. Rule as the data show it: active = GI50 up to about 1.1 µM and inactive = higher.

Legend:
Assay in all cases: inhibition of tumour cell growth, NCI panel, 48 h
SK-OV-3 = tested on: SK-OV-3
MDA-MB-435 = tested on: MDA-MB-435
MDA-MB-231 = tested on: MDA-MB-231
NCI-H522 = tested on: NCI-H522
SF-268 = tested on: SF-268
UO-31 = tested on: UO-31
DU-145 = tested on: DU-145
UACC-257 = tested on: UACC-257
SK-MEL-28 = tested on: SK-MEL-28
MOLT-4 = tested on: MOLT-4
HT-29 = tested on: HT-29
IGROV-1 = tested on: IGROV-1
HOP-92 = tested on: HOP-92
Hs-578T = tested on: Hs-578T
SW-620 = tested on: SW-620
M14 = tested on: M14
RPMI-8226 = tested on: RPMI-8226
HCT-116 = tested on: HCT-116
K562 = tested on: K562
SK-MEL-2 = tested on: SK-MEL-2
CAKI-1 = tested on: CAKI-1
SF-295 = tested on: SF-295
T47D = tested on: T47D
U-251 = tested on: U-251
OVCAR-4 = tested on: OVCAR-4
A549 = tested on: A549
OVCAR-3 = tested on: OVCAR-3
MDA-N = tested on: MDA-N
EKVX = tested on: EKVX
HCC 2998 = tested on: HCC 2998
SNB-19 = tested on: SNB-19
NCI-H23 = tested on: NCI-H23
OVCAR-5 = tested on: OVCAR-5
HCT-15 = tested on: HCT-15
BT-549 = tested on: BT-549
786-0 = tested on: 786-0
UACC-62 = tested on: UACC-62
MCF7 = tested on: MCF7
LOX IMVI = tested on: LOX IMVI
Malme-3M = tested on: Malme-3M
HOP-62 = tested on: HOP-62
SN12C = tested on: SN12C
SR = tested on: SR
RXF 393 = tested on: RXF 393
NCI-H460 = tested on: NCI-H460
SK-MEL-5 = tested on: SK-MEL-5
NCI-H226 = tested on: NCI-H226
A498 = tested on: A498
CCRF-CEM = tested on: CCRF-CEM
COLO 205 = tested on: COLO 205
ACHN = tested on: ACHN
PC-3 = tested on: PC-3
HL-60 = tested on: HL-60
SF-539 = tested on: SF-539
TK-10 = tested on: TK-10
SNB-75 = tested on: SNB-75
KM12 = tested on: KM12
NCI/ADR-RES = tested on: NCI/ADR-RES
OVCAR-8 = tested on: OVCAR-8

COC1(OC)c2occc2C(=N)c2ccc(=O)oc21 was tested, and the GI50 (SK-OV-3) was > 100 µM (inactive), the GI50 (MDA-MB-435) was > 100 µM (inactive) and the GI50 (MDA-MB-231) was > 100 µM (inactive). For the same compound, the GI50 (NCI-H522) was > 100 µM (inactive), the GI50 (SF-268) was > 100 µM (inactive) and the GI50 (UO-31) was > 100 µM (inactive). The GI50 (DU-145) was > 100 µM (inactive), the GI50 (UACC-257) was > 100 µM (inactive) and the GI50 (SK-MEL-28) was > 100 µM (inactive). For the same compound, the GI50 (MOLT-4) was > 100 µM (inactive), the GI50 (HT-29) was > 100 µM (inactive) and the GI50 (IGROV-1) was > 100 µM (inactive). The GI50 (HOP-92) was > 100 µM (inactive), the GI50 (Hs-578T) was > 100 µM (inactive) and the GI50 (SW-620) was > 100 µM (inactive). The GI50 (M14) was > 100 µM (inactive), the GI50 (RPMI-8226) was > 100 µM (inactive) and the GI50 (HCT-116) was > 100 µM (inactive). For the same compound, the GI50 (K562) was > 100 µM (inactive), the GI50 (SK-MEL-2) was > 100 µM (inactive) and the GI50 (CAKI-1) was > 100 µM (inactive). For the same compound, the GI50 (SF-295) was > 100 µM (inactive), the GI50 (T47D) was > 100 µM (inactive) and the GI50 (U-251) was > 100 µM (inactive). The GI50 (OVCAR-4) was > 100 µM (inactive), the GI50 (A549) was > 100 µM (inactive) and the GI50 (OVCAR-3) was 77.8 µM (inactive). The GI50 (MDA-N) was > 100 µM (inactive), the GI50 (EKVX) was > 100 µM (inactive) and the GI50 (HCC 2998) was > 100 µM (inactive). The GI50 (SNB-19) was > 100 µM (inactive), the GI50 (NCI-H23) was > 100 µM (inactive) and the GI50 (OVCAR-5) was > 100 µM (inactive). For the same compound, the GI50 (HCT-15) was > 100 µM, the GI50 (BT-549) was > 100 µM (inactive) and the GI50 (786-0) was > 100 µM (inactive). The GI50 (UACC-62) was > 100 µM (inactive), the GI50 (MCF7) was 81.8 µM (inactive) and the GI50 (LOX IMVI) was > 100 µM (inactive). The GI50 (Malme-3M) was 18.2 µM (inactive), the GI50 (HOP-62) was > 100 µM (inactive) and the GI50 (SN12C) was > 100 µM (inactive). The GI50 (SR) was 71.8 µM (inactive), the GI50 (RXF 393) was > 100 µM (inactive) and the GI50 (NCI-H460) was > 100 µM (inactive). For the same compound, the GI50 (SK-MEL-5) was 22.4 µM (inactive), the GI50 (NCI-H226) was > 100 µM (inactive) and the GI50 (A498) was > 100 µM (inactive). The GI50 (CCRF-CEM) was 85.9 µM (inactive), the GI50 (COLO 205) was > 100 µM (inactive) and the GI50 (ACHN) was 92.3 µM (inactive). The GI50 (PC-3) was > 100 µM (inactive), the GI50 (HL-60) was 45.8 µM (inactive) and the GI50 (SF-539) was 41.9 µM (inactive). For the same compound, the GI50 (TK-10) was > 100 µM (inactive).

For NS(=O)(=O)c1ccc(CNC(=S)NC(=O)Nc2ccc(Cl)c(Cl)c2)cc1, the GI50 (SK-OV-3) was 19.6 µM (inactive), the GI50 (MDA-MB-231) was 10.6 µM (inactive) and the GI50 (NCI-H522) was 16 µM (inactive). For the same compound, the GI50 (SF-268) was 21.7 µM (inactive), the GI50 (UO-31) was 16.9 µM (inactive) and the GI50 (DU-145) was 33.3 µM (inactive). For the same compound, the GI50 (UACC-257) was 32.8 µM (inactive), the GI50 (SK-MEL-28) was 21.6 µM (inactive) and the GI50 (MOLT-4) was 15.9 µM (inactive). For the same compound, the GI50 (HT-29) was 23.2 µM (inactive), the GI50 (IGROV-1) was 17.9 µM (inactive) and the GI50 (HOP-92) was 17.7 µM (inactive). The GI50 (Hs-578T) was 17.1 µM (inactive), the GI50 (SW-620) was 18.9 µM (inactive) and the GI50 (M14) was 19 µM (inactive). For the same compound, the GI50 (RPMI-8226) was 16 µM (inactive), the GI50 (HCT-116) was 17.5 µM (inactive) and the GI50 (K562) was 16.1 µM (inactive). For the same compound, the GI50 (SK-MEL-2) was 14.6 µM (inactive), the GI50 (SNB-75) was 17.5 µM (inactive) and the GI50 (SF-295) was 16.3 µM (inactive). The GI50 (T47D) was 18.1 µM (inactive), the GI50 (U-251) was 11.9 µM (inactive) and the GI50 (OVCAR-4) was 31.5 µM (inactive). The GI50 (A549) was 23.6 µM (inactive), the GI50 (KM12) was 19 µM (inactive) and the GI50 (MDA-N) was 20 µM (inactive). The GI50 (SNB-19) was 19.8 µM (inactive), the GI50 (NCI-H23) was 14.8 µM (inactive) and the GI50 (OVCAR-5) was 29 µM (inactive). The GI50 (HCT-15) was 16.2 µM, the GI50 (BT-549) was 16.9 µM (inactive) and the GI50 (786-0) was 16.8 µM (inactive). For the same compound, the GI50 (UACC-62) was 15.1 µM (inactive), the GI50 (MCF7) was 19.5 µM (inactive) and the GI50 (LOX IMVI) was 13.7 µM (inactive). For the same compound, the GI50 (Malme-3M) was 26.2 µM (inactive), the GI50 (HOP-62) was 18.6 µM (inactive) and the GI50 (SN12C) was 17.3 µM (inactive). The GI50 (RXF 393) was 27.9 µM (inactive), the GI50 (NCI-H460) was 25.2 µM (inactive) and the GI50 (SK-MEL-5) was 17.8 µM (inactive). For the same compound, the GI50 (A498) was 16.2 µM (inactive), the GI50 (NCI/ADR-RES) was 19 µM (inactive) and the GI50 (CCRF-CEM) was 16.4 µM (inactive). For the same compound, the GI50 (OVCAR-8) was 20.3 µM (inactive), the GI50 (COLO 205) was 33 µM (inactive) and the GI50 (ACHN) was 17.5 µM (inactive). The GI50 (PC-3) was 8.57 µM (inactive), the GI50 (SF-539) was 21.2 µM (inactive) and the GI50 (TK-10) was 39.5 µM (inactive).

With O=C(NNC(=O)c1ccccc1O)c1ccccc1O the GI50 (SK-OV-3) was 0.341 µM (active), the GI50 (MDA-MB-435) was < 0.01 µM (active) and the GI50 (MDA-MB-231) was 5.24 µM (inactive). For the same compound, the GI50 (NCI-H522) was 0.112 µM (active), the GI50 (SF-268) was < 0.0233 µM (active) and the GI50 (UO-31) was 0.022 µM (active). The GI50 (DU-145) was 0.0445 µM (active), the GI50 (UACC-257) was 0.376 µM (active) and the GI50 (SK-MEL-28) was 22.4 µM (inactive). For the same compound, the GI50 (MOLT-4) was 0.0385 µM (active), the GI50 (HT-29) was 6.71 µM (inactive) and the GI50 (IGROV-1) was < 0.0255 µM (active). The GI50 (HOP-92) was 2.25 µM (inactive), the GI50 (Hs-578T) was 0.0149 µM (active) and the GI50 (SW-620) was 0.108 µM (active). The GI50 (M14) was 0.0785 µM (active), the GI50 (RPMI-8226) was 0.326 µM (active) and the GI50 (HCT-116) was 0.0446 µM (active). For the same compound, the GI50 (K562) was < 0.0221 µM (active), the GI50 (SNB-75) was 0.0565 µM (active) and the GI50 (CAKI-1) was < 0.0237 µM (active). For the same compound, the GI50 (SF-295) was 0.189 µM (active), the GI50 (T47D) was 0.0625 µM (active) and the GI50 (U-251) was 0.116 µM (active). The GI50 (OVCAR-4) was 0.0621 µM (active), the GI50 (A549) was 0.0361 µM (active) and the GI50 (KM12) was 0.413 µM (active). For the same compound, the GI50 (OVCAR-3) was 0.258 µM (active), the GI50 (MDA-N) was 0.0247 µM (active) and the GI50 (EKVX) was 1.17 µM (inactive). The GI50 (HCC 2998) was 0.0519 µM (active), the GI50 (SNB-19) was 0.0525 µM (active) and the GI50 (NCI-H23) was 0.105 µM (active). For the same compound, the GI50 (OVCAR-5) was 0.5 µM (active), the GI50 (HCT-15) was 0.11 µM and the GI50 (BT-549) was 0.0426 µM (active). The GI50 (786-0) was 0.141 µM (active), the GI50 (UACC-62) was 0.0495 µM (active) and the GI50 (MCF7) was 0.43 µM (active). For the same compound, the GI50 (LOX IMVI) was 0.0918 µM (active), the GI50 (Malme-3M) was 0.0393 µM (active) and the GI50 (HOP-62) was 2.31 µM (inactive). For the same compound, the GI50 (SN12C) was 0.0792 µM (active), the GI50 (SR) was 0.0366 µM (active) and the GI50 (RXF 393) was 0.0514 µM (active). For the same compound, the GI50 (NCI-H460) was 0.15 µM (active), the GI50 (SK-MEL-5) was 0.607 µM (active) and the GI50 (NCI-H226) was 0.873 µM (active). The GI50 (A498) was 19.8 µM (inactive), the GI50 (NCI/ADR-RES) was 0.0791 µM (active) and the GI50 (CCRF-CEM) was 0.0173 µM (active). The GI50 (OVCAR-8) was 0.929 µM (active), the GI50 (COLO 205) was 0.355 µM (active) and the GI50 (ACHN) was 0.0507 µM (active). The GI50 (HL-60) was 0.0528 µM (active), the GI50 (SF-539) was 0.033 µM (active) and the GI50 (TK-10) was 5.97 µM (inactive).
